# Read-outs that look alike come from different tables or passages of the source.
# Key:
# TYK2 JH2 = target: T1, TYK2 JH2 (Homo sapiens, UniProt P29597); experiment: TYK2 JH2 binding assay (KINOMEscan KdELECT competitive binding); conditions: TYK2 JH2 domain, KINOMEscan KdELECT (Assay A); read-out: Biochemical TYK2_JH2_Kd
# T1 construct: purchased DiscoverX (KINOMEscan KdELECT service); host or cells: E. coli BL21-derived (T7 phage display) or HEK-293
# Outline: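 Beads carrying a biotinylated ligand were mixed with tagged JH2 kinase and compound (11 points, 3-fold steps, 0.9% DMSO) and shaken 1 h at room temperature. After washing, kinase was released with 0.5 μM untagged ligand over 30 min and measured by qPCR to derive Kd.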
# [1] = system: JAK1/TYK2 pSTAT5 (Tyr694/699) in THP-1 cell line; experiment: IFNa-stimulated JAK1/TYK2 pSTAT5 (Tyr694/699) inhibition cellular assay, AlphaLISA; assay type: cell-based; conditions: THP-1 cells, IFNa-stimulated, AlphaLISA (Assay B), read-out: Cellular THP1_IFNa-pSTATS_IC50
# Outline: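 Compound dilutions were dispensed first, and HBSS-suspended THP-1 cells were added on top (final top concentration 10000 nM, 6-fold series). After 1 h at 37 °C, IFNa (100 ng/mL as added) was applied for 30 min. Cells were then lysed and pSTAT5 was quantified by AlphaLISA.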
# T1 sequence (P29597 589-875 limits assumed): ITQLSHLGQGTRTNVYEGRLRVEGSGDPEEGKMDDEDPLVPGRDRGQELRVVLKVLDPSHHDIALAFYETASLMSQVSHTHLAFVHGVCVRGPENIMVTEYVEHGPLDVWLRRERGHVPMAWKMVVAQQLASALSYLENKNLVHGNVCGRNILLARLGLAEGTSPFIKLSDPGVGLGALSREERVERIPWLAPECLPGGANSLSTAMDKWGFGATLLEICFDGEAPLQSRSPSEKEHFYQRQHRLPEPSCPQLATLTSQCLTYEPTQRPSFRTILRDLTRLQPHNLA
Structure (SMILES),Kd (TYK2 JH2),IC50 ([1]; Homo sapiens),IC50 [1]
"CNc1ncc(-c2ncccc2OC)c2cc(Nc3ccccn3)ncc12 [Example 91, 4-(3-methoxypyridin-2-yl)-N^1-methyl-N^6-(pyridin-2-yl)-2,7-naphthyridine-1,6-diamine]",100 to 1000 nM,> 500 nM,–
"CNc1ncc(-c2ccccc2)c2cc(NCC3CC3)ncc12 [Example 93, N^6-(cyclopropylmethyl)-N^1-methyl-4-phenyl-2,7-naphthyridine-1,6-diamine]",1000 to 10000 nM,> 500 nM,–
"CNc1ncc(-c2ccccc2)c2cc(NCC(F)(F)F)ncc12 [Example 94, N^1-methyl-4-phenyl-N^6-(2,2,2-trifluoroethyl)-2,7-naphthyridine-1,6-diamine]",100 to 1000 nM,> 500 nM,–
"O=C(Nc1cc2c(-c3ccccc3)cnc(Cl)c2cn1)C1CC1 [Example 95, N-(8-chloro-5-phenyl-2,7-naphthyridin-3-yl)cyclopropanecarboxamide]",100 to 1000 nM,> 500 nM,–
"CNc1ncc(-c2ccccc2)c2cc(NCc3ccc(OC)cc3)ncc12 [Example 98, N^6-(4-methoxybenzyl)-N^1-methyl-4-phenyl-2,7-naphthyridine-1,6-diamine]",1000 to 10000 nM,> 500 nM,–
"CNc1ncc(-c2cccc(F)c2)c2cc(NC(=O)C3CC3)ncc12 [Example 116, N-(5-(3-fluorophenyl)-8-(methylamino)-2,7-naphthyridin-3-yl)cyclopropanecarboxamide]",≤ 100 nM,> 500 nM,–
"CNc1ncc(-c2ccc(OC3CC3)cc2)c2cc(NC(=O)C3CC3)ncc12 [Example 117, N-(5-(4-cyclopropoxyphenyl)-8-(methylamino)-2,7-naphthyridin-3-yl)cyclopropanecarboxamide]",≤ 100 nM,> 500 nM,–
"CNc1ncc(/C(C)=C/c2ccccc2)c2cc(NC(=O)C3CC3)ncc12 [Example 118, (E)-N-(8-(methylamino)-5-(1-phenylprop-1-en-2-yl)-2,7-naphthyridin-3-yl)cyclopropanecarboxamide]",≤ 100 nM,≤ 500 nM,–
"CNc1ncc(-c2ccccc2COC)c2cc(NC(=O)C3CC3)ncc12 [Example 119, N-(5-(2-(methoxymethyl)phenyl)-8-(methylamino)-2,7-naphthyridin-3-yl)cyclopropanecarboxamide]",≤ 100 nM,> 500 nM,–
"CNc1ncc(C(=O)O)c2cc(NC(=O)C3CC3)ncc12 [Example 120, 6-(cyclopropanecarboxamido)-1-(methylamino)-2,7-naphthyridine-4-carboxylic acid]",100 to 1000 nM,> 500 nM,–
"CNC(=O)c1cnc(NC)c2cnc(NC(=O)C3CC3)cc12 [Example 124, 6-(cyclopropanecarboxamido)-N-methyl-1-(methylamino)-2,7-naphthyridine-4-carboxamide]",≤ 100 nM,> 500 nM,–
"C#Cc1cnc(NC)c2cnc(NC(=O)C3CC3)cc12 [Example 125, N-(5-ethynyl-8-(methylamino)-2,7-naphthyridin-3-yl)cyclopropanecarboxamide]",≤ 100 nM,> 500 nM,–
"CNc1ncc(-c2cc(Br)no2)c2cc(NC(=O)C3CC3)ncc12 [Example 126, N-(5-(3-bromoisoxazol-5-yl)-8-(methylamino)-2,7-naphthyridin-3-yl)cyclopropanecarboxamide]",≤ 100 nM,> 500 nM,–
"CNc1ncc(C#CC(=O)C2CC2)c2cc(NC(=O)C3CC3)ncc12 [Example 127, N-(5-(3-cyclopropyl-3-oxoprop-1-yn-1-yl)-8-(methylamino)-2,7-naphthyridin-3-yl)cyclopropanecarboxamide]",≤ 100 nM,> 500 nM,–
"CCC(=O)c1cnc(NC)c2cnc(NC(=O)C3CC3)cc12 [Example 128, N-((methylamino)-5-propionyl-2,7-naphthyridin-3-yl)cyclopropanecarboxamide]",≤ 100 nM,> 500 nM,–
"C/C=C/c1cnc(NC)c2cnc(NC(=O)C3CC3)cc12 [Example 129, (E)-N-(8-(methylamino)-5-(prop-1-en-1-yl)-2,7-naphthyridin-3-yl)cyclopropanecarboxamide]",≤ 100 nM,> 500 nM,–
"CNc1ncc(-c2cnc(C)o2)c2cc(NC(=O)C3CC3)ncc12 [Example 130, N-(8-(methylamino)-5-(2-methyloxazol-5-yl)-2,7-naphthyridin-3-yl)cyclopropanecarboxamide]",≤ 100 nM,> 500 nM,–
"CNc1ncc(-c2ccn(Cc3ccccc3)n2)c2cc(NC(=O)C3CC3)ncc12 [Example 131, N-(5-(1-benzyl-1H-pyrazol-3-yl)-8-(methylamino)-2,7-naphthyridin-3-yl)cyclopropanecarboxamide]",≤ 100 nM,> 500 nM,–
"CNc1ncc(-c2ccc(OC3CCN(C)CC3)cc2)c2cc(NC(=O)C3CC3)ncc12 [Example 132, N-(8-(methylamino)-5-(4-((1-methylpiperidin-4-yl)oxy)phenyl)-2,7-naphthyridin-3-yl)cyclopropanecarboxamide]",≤ 100 nM,> 500 nM,–

# More lines, now with the values ahead:
Kd (TYK2 JH2),IC50 ([1]; Homo sapiens),IC50 [1],Structure (SMILES)
≤ 100 nM,> 500 nM,–,"CNc1ncc(-c2ccccc2)c2cc(NC(C)=O)ncc12 [Example 90, N-(8-(methylamino)-5-phenyl-2,7-naphthyridin-3-yl)acetamide]"
≤ 100 nM,> 500 nM,–,"CNc1ncc(-c2ccccc2)c2cc(Nc3ccccn3)ncc12 [Example 92, N^1-methyl-4-phenyl-N^6-(pyridin-2-yl)-2,7-naphthyridine-1,6-diamine]"
≤ 100 nM,> 500 nM,–,"CCc1ncc(-c2ccccc2)c2cc(NC(=O)C3CC3)ncc12 [Example 96, N-(8-ethyl-5-phenyl-2,7-naphthyridin-3-yl)cyclopropanecarboxamide]"
≤ 100 nM,> 500 nM,–,"CNc1ncc(-c2ccccc2)c2cc(NC(=O)C3(C)CC3)ncc12 [Example 101, 1-methyl-N-(8-(methylamino)-5-phenyl-2,7-naphthyridin-3-yl)cyclopropane-1-carboxamide]"
≤ 100 nM,> 500 nM,–,"CNc1ncc(-c2ccccc2)c2cc(NC(=O)C3CC3F)ncc12 (stereo not shown) [Example 103, 2-fluoro-N-(8-(methylamino)-5-phenyl-2,7-naphthyridin-3-yl)cyclopropane-1-carboxamide]"
≤ 100 nM,–,> 500 nM,"CNc1ncc(-c2ccccc2)c2cc(NC(=O)C3CC3F)ncc12 (stereo not shown) [Example 104, 2-fluoro-N-(8-(methylamino)-5-phenyl-2,7-naphthyridin-3-yl)cyclopropane-1-carboxamide]"
≤ 100 nM,> 500 nM,–,"CNc1ncc(-c2ccccc2)c2cc(NC(=O)C3CC3(F)F)ncc12 (stereo not shown) [Example 105, 2,2-difluoro-N-(8-(methylamino)-5-phenyl-2,7-naphthyridin-3-yl)cyclopropane-1-carboxamide]"
≤ 100 nM,> 500 nM,–,"CNc1ncc(-c2c[nH]c3ncccc23)c2cc(NC(=O)C3CC3)ncc12 [Example 106, N-(8-(methylamino)-5-(1H-pyrrolo[2,3-b]pyridin-3-yl)-2,7-naphthyridin-3-yl)cyclopropanecarboxamide]"
≤ 100 nM,> 500 nM,–,"CNc1ncc(-c2ccc3c(c2)OCCO3)c2cc(NC(=O)C3CC3)ncc12 [Example 108, N-(5-(2,3-dihydrobenzo[b][1,4]dioxin-6-yl)-8-(methylamino)-2,7-naphthyridin-3-yl)cyclopropanecarboxamide]"
≤ 100 nM,> 500 nM,–,"CNc1ncc(-c2ccc(C(F)(F)F)cc2)c2cc(NC(=O)C3CC3)ncc12 [Example 109, N-(8-(methylamino)-5-(4-(trifluoromethyl)phenyl)-2,7-naphthyridin-3-yl)cyclopropanecarboxamide]"
≤ 100 nM,> 500 nM,–,"CNc1ncc(-c2ccc(OC(F)(F)F)cc2)c2cc(NC(=O)C3CC3)ncc12 [Example 110, N-(8-(methylamino)-5-(4-(trifluoromethoxy)phenyl)-2,7-naphthyridin-3-yl)cyclopropanecarboxamide]"
≤ 100 nM,> 500 nM,–,"CNc1ncc(-c2ccc(OCC(F)(F)F)cc2)c2cc(NC(=O)C3CC3)ncc12 [Example 111, N-(8-(methylamino)-5-(4-(2,2,2-trifluoroethoxy)phenyl)-2,7-naphthyridin-3-yl)cyclopropanecarboxamide]"
≤ 100 nM,> 500 nM,–,"CNc1ncc(-c2ccc(OC(F)F)cc2)c2cc(NC(=O)C3CC3)ncc12 [Example 112, N-(5-(4-(difluoromethoxy)phenyl)-8-(methylamino)-2,7-naphthyridin-3-yl)cyclopropanecarboxamide]"
≤ 100 nM,> 500 nM,–,"CNc1ncc(-c2ccc(C3CC3)cc2)c2cc(NC(=O)C3CC3)ncc12 [Example 113, N-(5-(4-cyclopropylphenyl)-8-(methylamino)-2,7-naphthyridin-3-yl)cyclopropanecarboxamide]"
≤ 100 nM,≤ 500 nM,–,"CNc1ncc(-c2cc3ccccc3o2)c2cc(NC(=O)C3CC3)ncc12 [Example 114, N-(5-(benzofuran-2-yl)-8-(methylamino)-2,7-naphthyridin-3-yl)cyclopropanecarboxamide]"
≤ 100 nM,> 500 nM,–,"CNc1ncc(-c2cnn(CCOC)c2)c2cc(NC(=O)C3CC3)ncc12 [Example 115, N-(5-(1-(2-methoxyethyl)-1H-pyrazol-4-yl)-8-(methylamino)-2,7-naphthyridin-3-yl)cyclopropanecarboxamide]"

# From patent US20240025906A1 (NEURON23, INC., priority 2022, published 2024)
